According to PMC11299271 (BMC Pharmacology & Toxicology, 2024):
Where “and” joins values, the source holds several entries; their conditions need not be identical. Equal entries are not always repeated. Where two headings read alike, the source gives them in different places. Values belong to the compound of their own block, whether it stands above or below them.

Experiments:
[1] = Stability of analytes in QC rat plasma (UPLC-MS/MS); format: physicochemical; conditions: for Stability, autosampler at 4 °C for up to 16 h (% of nominal): extracted plasma samples; for Stability, autosampler at 4 °C for up to 16 h (% of nominal) / Stability, 4 °C for 12 h (% of nominal) / Stability, freeze-thaw three cycles (% of nominal) / Stability, room temperature for 4 h (% of nominal) / Stability, −80 °C for 7 days (% of nominal): n = 3; for Stability, 4 °C for 12 h (% of nominal) / Stability, freeze-thaw three cycles (% of nominal) / Stability, room temperature for 4 h (% of nominal) / Stability, −80 °C for 7 days (% of nominal): rat plasma; for stability in plasma under storage conditions: room temperature (25 °C) 4 h, 4 °C 12 h, −80 °C 7 days, three freeze-thaw cycles, autosampler 4 °C up to 16 h
Procedure: The stability of analytes in QC plasma was evaluated by analyzing replicates (n = 3) of LQC, MQC, HQC samples placed on storage for 4 h at room temperature (25 °C), for 12 h at 4 °C, for 7 days at −80 °C, and after three freeze-thaw cycles from −80 °C to room temperature. […]

[2] = Plasma insulin concentration in T2DM rats (Rat INS ELISA Kit); format: in vivo
Procedure: Insulin concentration in the plasma was determined by Rat INS ELISA Kit (Zeye Biotechnology Co., Ltd., Shanghai, China). All the procedures were conducted according to manufacturers’ instructions. Test specimens (plasma samples, blank and calibration samples) were added to an antibody-coated 96-well plate followed by addition of biological agent and enzyme conjugate solution, these mixtures incubated 30 min at 37 °C. The plate was then washed after incubation and a mixture of chromogenic reagent A and B was added. Optical density values at 450 nm were measured after terminating the reaction, and insulin concentrations were calculated according to the standard curve within a range of 0–20 mU/L (0, 1.25, 2.5, 5, 10, 20 mU/L).

[3] = Pharmacokinetic measurements in T2DM rats (plasma concentrations by UPLC-MS/MS, two-compartment PK model); format: in vivo; conditions: for C5ohsax, observed plasma concentration: individual rats
Procedure: . Plasma was obtained by centrifugation at 3000 r/min and stored at −80 °C until analysis.
Plasma concentrations of analytes were determined using the UPLC-MS/MS method above. […].

[4] = Plasma glucose concentration in T2DM rats (glucose oxidase method); format: in vivo
Procedure: Glucose concentration in the plasma was determined by Glucose test kit (glucose oxidase method, Rongsheng biological Pharmaceutical Co.,Ltd, Shanghai, China). All the procedures were conducted according to manufacturers’ instructions. All test specimens (plasma samples, blank and calibration samples) were done in flat bottom 96 well microplates; 2.5 µL serum or calibration, 250 µL solution were pipetted into each well of the microplate, and the blank control contain water. The results were tested at 37 °C for 10 min and an absorbance value of 505 nm in a continuous monitoring micro plate reader. Glucose concentration (mmol/L) = (sample tube absorbent/calibration tube absorbent) × calibration fluid concentration (5.55 mmol/L). All experiments were repeated two duplicates.

[5] = cited from earlier work
[6] = high QC: spiked 2000 ng/mL SAX, 400 ng/mL 5-OH SAX
[7] = low QC: spiked 15 ng/mL SAX, 3 ng/mL 5-OH SAX
[8] = T2DM rats, i.v. 0.5 mg/kg 5-OH SAX, Subject1, Subject2, Subject3, 0.5 mg/kg
[9] = T2DM rats, i.v. 0.5 mg/kg 5-OH SAX, two-compartment model, mean (n = 3)
[10] = i.g. 10 mg/kg SAX vs 0.5% CMC-Na
[11] = T2DM rats, i.g. 10 mg/kg SAX, two-compartment model with first order absorption, mean (n = 3)

SMILES: N#C[C@@H]1C[C@@H]2C[C@@H]2N1C(=O)[C@@H](N)C12CC3CC(O)(CC(O)(C3)C1)C2 [5-OH SAX, 5-hydroxy Saxagliptin]
Stability, autosampler at 4 °C for up to 16 h (% of nominal) [1, 6]: 101.22 ± 2.47%
Stability, autosampler at 4 °C for up to 16 h (% of nominal) [1, 7]: 100.44 ± 3.10%
Stability, 4 °C for 12 h (% of nominal) [1, 6]: 99.32 ± 2.66%
Stability, freeze-thaw three cycles (% of nominal) [1, 6]: 95.79 ± 2.16%
Stability, room temperature for 4 h (% of nominal) [1, 6]: 98.51 ± 2.19%
Stability, −80 °C for 7 days (% of nominal) [1, 6]: 97.49 ± 2.52%
Stability, 4 °C for 12 h (% of nominal) [1, 7]: 100.67 ± 2.52%
Stability, freeze-thaw three cycles (% of nominal) [1, 7]: 94.89 ± 2.91%
Stability, room temperature for 4 h (% of nominal) [1, 7]: 99.78 ± 2.22%
Stability, −80 °C for 7 days (% of nominal) [1, 7]: 95.11 ± 4.55%
stability in plasma under storage conditions [1]: remained stable
insulin compared to the control group ([2]; tail vein 0.5 mg/kg 5-OH SAX vs saline, within the sampling range): no significant differences
AUC, individual rats [3, 8]: 691.49 ng·h/mL and 452.17 ng·h/mL and 611.48 ng·h/mL
Cl2, individual rats [3, 8]: 8.2463 mL/min/kg and 8.554 mL/min/kg and 6.7797 mL/min/kg
Cl, individual rats [3, 8]: 12.051 mL/min/kg and 18.4298 mL/min/kg and 13.628 mL/min/kg
K12, individual rats [3, 8]: 4.85 h⁻¹ and 2.93 h⁻¹ and 2.76 h⁻¹
K21, individual rats [3, 8]: 3.41 h⁻¹ and 3.53 h⁻¹ and 3.31 h⁻¹
V2, individual rats [3, 8]: 0.14522 L/kg and 0.14545 L/kg and 0.12277 L/kg
V, individual rats [3, 8]: 0.10199 L/kg and 0.17509 L/kg and 0.14739 L/kg
t1/2a, individual rats [3, 8]: 3 min and 3.6 min and 4.2 min
t1/2β, individual rats [3, 8]: 23.4 min and 19.8 min and 22.2 min
C5ohsax, observed plasma concentration ([3]; T2DM rats, i.v. 0.5 mg/kg 5-OH SAX, nominal time 0.08 h, 0.5 mg/kg): 1610.00 ng/mL and 1240.00 ng/mL
C5ohsax, observed plasma concentration ([3]; T2DM rats, i.v. 0.5 mg/kg 5-OH SAX, nominal time 0.17 h, 0.5 mg/kg): 972.00 ng/mL and 684.00 ng/mL and 900.00 ng/mL
C5ohsax, observed plasma concentration ([3]; T2DM rats, i.v. 0.5 mg/kg 5-OH SAX, nominal time 0.25 h, 0.5 mg/kg): 595.00 ng/mL and 387.00 ng/mL and 550.00 ng/mL
C5ohsax, observed plasma concentration ([3]; T2DM rats, i.v. 0.5 mg/kg 5-OH SAX, nominal time 0.50 h, 0.5 mg/kg): 295.00 ng/mL and 192.00 ng/mL and 235.00 ng/mL
C5ohsax, observed plasma concentration ([3]; T2DM rats, i.v. 0.5 mg/kg 5-OH SAX, nominal time 0.75 h, 0.5 mg/kg): 150.00 ng/mL and 91.70 ng/mL and 149.00 ng/mL
C5ohsax, observed plasma concentration ([3]; T2DM rats, i.v. 0.5 mg/kg 5-OH SAX, nominal time 2.00 h, 0.5 mg/kg): 20.60 ng/mL and 8.16 ng/mL and 11.60 ng/mL
AUC [3, 9]: 585.04 ng·h/mL
CL2 (clearance rate of peripheral compartment) [3, 9]: 7.86 mL/min/kg
CL (clearance rate of central compartment) [3, 9]: 14.703 mL/min/kg
Cmax [3, 9]: 3716.88 ng/mL
K12 [3, 9]: 3.51 h⁻¹
K21 [3, 9]: 3.42 h⁻¹
V2 (apparent distribution volume of peripheral compartment) [3, 9]: 0.13781 L/kg
V (apparent distribution volume of central compartment) [3, 9]: 0.14149 L/kg
t1/2a (distribution phase half-life) [3, 9]: 3.6 min
t1/2β (elimination half-life) [3, 9]: 21.6 min
blood glucose compared to the control group ([4]; tail vein 0.5 mg/kg 5-OH SAX vs saline, 0.08, 0.17, 0.25 and 0.5 h (P<0.05)): significant differences
systemic exposure in plasma relative to the parent drug SAX ([5]; after SAX): about 3 times

Stability, autosampler at 4 °C for up to 16 h (% of nominal) [1, 6]: 98.05 ± 2.04%
Stability, autosampler at 4 °C for up to 16 h (% of nominal) [1, 7]: 99.02 ± 2.00%
Stability, 4 °C for 12 h (% of nominal) [1, 6]: 99.09 ± 2.02%
Stability, freeze-thaw three cycles (% of nominal) [1, 6]: 95.84 ± 1.52%
Stability, room temperature for 4 h (% of nominal) [1, 6]: 99.59 ± 3.47%
Stability, −80 °C for 7 days (% of nominal) [1, 6]: 98.07 ± 2.07%
Stability, 4 °C for 12 h (% of nominal) [1, 7]: 100.60 ± 2.29%
Stability, freeze-thaw three cycles (% of nominal) [1, 7]: 96.71 ± 1.93%
Stability, room temperature for 4 h (% of nominal) [1, 7]: 99.02 ± 2.02%
Stability, −80 °C for 7 days (% of nominal) [1, 7]: 98.56 ± 2.14%
stability in plasma under storage conditions [1]: remained stable
CL2 (clearance rate of peripheral compartment) [3, 11]: 284.8403 mL/min/kg
CL (clearance rate of central compartment) [3, 11]: 54.0967 mL/min/kg
K12 [3, 11]: 6.62 h⁻¹
K21 [3, 11]: 1.07 h⁻¹
V2 (apparent distribution volume of peripheral compartment) [3, 11]: 18.3933 L/kg
V (apparent distribution volume of central compartment) [3, 11]: 2.30724 L/kg
Tmax ([3]; rat, plasma, po, 10 mg/kg): 6.6 min
half-life ([3]; rat, plasma, po, 10 mg/kg, T2DM rats, i.g. 10 mg/kg SAX, two-compartment model with first order absorption, mean (n = 3), read-out: t1/2Ka (absorption phase half-life) (converted)): 4.2 min
half-life ([3]; rat, plasma, po, 10 mg/kg, T2DM rats, i.g. 10 mg/kg SAX, two-compartment model with first order absorption, mean (n = 3), read-out: t1/2a (distribution phase half-life) (converted)): 4.8 min
half-life ([3]; rat, plasma, po, 10 mg/kg, T2DM rats, i.g. 10 mg/kg SAX, two-compartment model with first order absorption, mean (n = 3), read-out: t1/2β (elimination half-life) (converted)): 368 min
AUC ([3]; rat, plasma, po, 10 mg/kg, read-out: AUC): 3280 ng·h/mL
Cmax ([3]; rat, plasma, po, 10 mg/kg, read-out: Cmax): 2200 ng/mL
SMILES: N#C[C@@H]1C[C@@H]2C[C@@H]2N1C(=O)[C@@H](N)C12CC3CC(CC(O)(C3)C1)C2 [SAX, Saxagliptin]
insulin compared to the control group [2, 10]: no significant differences
blood glucose compared to the control group [4, 10]: no significant differences
share of the dose metabolized in the liver by CYP3A4/5 to 5-OH SAX [5]: about 50%
bioavailability ([5]; oral 5 mg SAX): 75%
